Measured values as given in US20060275268A1, “COMPOSITIONS FOR ACTIVATING THE INFILTRATION ACTIVITY OF DENDRITIC CELLS, AND IMMUNOPOTENTIATING AGENTS” (priority 2003, published 2006).

How the values were obtained:
dendritic cells = assay: Infiltration activity of dendritic cells by the Transwell Chamber method (Matrigel); type: cell-based, human; conditions: for infiltration activity of immature and mature dendritic cells: 10 ng/ml added, FIG. 8
Protocol: Peripheral blood mononuclear cells (PBMCs) from healthy subjects were separated by Ficoll-Paque density gradient centrifugation. Peripheral blood mononuclear cells were dispersed at a cell density of 2×10^6 cells/ml in complete RPMI-1640e medium, and the resulting suspension is incubated at 37° C. for one hour to give adhesive cells. Nonadhesive cells were removed by washing five times with RPMI-1640 medium. The adhesive cells were cultured in RPMI medium containing 1000 U/ml GM-CSF and 1000 U/ml IL-4, 10% FBS, 25 mM HEPES, 2 mM L-glutamic acid, 50 μM 2-ME, 1% nonessential amino acids, and 2 mM sodium pyruvate under hypoxic conditions (oxygen concentration was 1%; herein, hypoxic conditions refer to conditions where the oxygen concentration is 1%) or normoxic conditions (oxygen concentration was 20%; herein, normoxic conditions refer to conditions where the oxygen concentration is 20%) at 37° C. under an 5% carbon dioxide atmosphere for six days with half of the medium being changed every day. On day six, the cells were collected and divided into two groups. The first group was cultured in a medium containing IL-4 and GM-CSF for one day, and then used as immature dendritic cells. […]
The infiltration activity of dendritic cells was measured by the Transwell Chamber method using the following procedure: a Matrigel was immobilized onto a membrane that separates a top chamber and a bottom chamber; after washing, dendritic cells were placed in the top chamber; 100 ng/ml recombinant human RANTES was placed in the bottom chamber when immature dendritic cells were used, or 100 ng/ml recombinant human MCP-3 was placed in the bottom chamber when mature dendritic cells were used; cells migrating into the bottom chamber were counted. […]
The mature dendritic cells obtained in Example 1 were cultured in the culture medium supplemented with 1 μM all-trans retinoic acid to induce their differentiation. Then, the infiltration activity of dendritic cells was determined by the same procedure described in Example 7.

MMP-9 mRNA = MMP-9 mRNA level in mature dendritic cells after induction of differentiation; type: cell-based, human; conditions: medium with 1 μM for three days, or 5 μM for one day then 1 μM for two days, FIG. 9
Protocol: Total RNA was isolated from the cultured cells (1×10^6 cells) using TRIzol reagent (Life Technologies). Each RNA sample (2 μg) was converted to cDNA in 50 μl of reaction mixture containing 75 mM KCl, 50 mM Tris-HCl (pH 8.3), 3 mM MgCl2, 10 mM dithiothreitol, 0.5 mM each of dNTPs, 2 μM random primer, and 1000 U of TaqMan Reverse Transcription reagent. Each cDNA (10 ng) was amplified in triplicate using an SYBR-Green PCR assay kit, and sequenced using an ABI PRISM 7900HT sequence Detection System. PCR was carried out by incubation at 50° C. for 2 minutes and then at 95° C. for 15 minutes, followed by 15 cycles of denaturation at 95° C., 30 cycles of annealing at 60° C., and extension at 72° C. for 1 minute. […] The mature dendritic cells obtained in Example 1 were cultured in the culture medium supplemented with 1 μM all-trans retinoic acid for three days or in the culture medium supplemented with 5 μM all-trans retinoic acid for one day. The cells were further cultured in the culture medium supplemented with 1 μM all-trans retinoic acid for two days, to induce the differentiation of the dendritic cells. After the induction of the differentiation, MMP-9 mRNA level in the cells was determined.

## CC1=C(/C=C/C(C)=C/C=C/C(C)=C/C(=O)O)C(C)(C)CCC1 [all-trans retinoic acid]
Dendritic cells; mature dendritic cells differentiated under hypoxic conditions, 1 μM in culture medium, FIG. 10
  infiltration activity of dendritic cells: increased
MMP-9 mRNA
  MMP-9 mRNA level in the cells: increased

## TIMP-1 protein: TIMP-1 is an MMP-9-specific inhibitor; protein added at 10 ng/ml
Dendritic cells; cells differentiated under hypoxic conditions
  infiltration activity of immature and mature dendritic cells: not changed
Dendritic cells; cells differentiated under normoxic conditions
  infiltration activity of immature and mature dendritic cells: reduced
